Results as given in US20090004137A1, “Uridine Derivatives as Antiviral Drugs Against a Flaviviridae, Especially Hcv” (priority 2004, published 2009).
pIC50: −log10 of the molar value.

How the values were obtained:
[1] = Cell viability (neutral red) on the replicon system; assay type: cell-based; conditions: human, Huh7 cells harbouring the subgenomic HCV replicon BM4-5, neutral red test, drug renewed daily for three days, read-out: CC50, cytotoxicity on Replicon System
Method: (§1) Antiviral and Cytotoxicity assays for HCV. Huh7 cells harbouring the subgenomic HCV replicon BM4-5 (J. T. Guo et al., J. Virol. 2001, 75: 8516-8523) were used in this study. Cells were maintained in Dulbecco's modified Eagle's medium high glucose 4.5 g/l (LifeTechnlogies) supplemented with 10% fetal bovine serum, 1% L-glutamine, 1% penicillin and streptomycin, 1% L-Pyruvate and 500 μg/ml of geneticien (G418, Invitrogen). Geneticin was used to select cells permitting the HCV RNA replication. Cells were passaged every four days with a 1:4 ratio.
For cell viability assays, cells were seeded in 96-well plates at a density of 12,500 cells per well. They were treated by the different molecules with the same concentrations and conditions than those used for the antiviral assays. Then, cell viability was measured by neutral red assay. Neutral red specifically colors lysosomes and its accumulation depends on cellular membrane integrity. The yield of neutral red incorporated in cells is proportional to the number of living cells. At the end of treatment, culture medium was removed; cells were washed by PBS, then coloured with neutral red at 0.005% for 3 hours at 37° C. Cells were then fixed 1 minute by formol calcium and lysed by atreatment with a vol/vol mixture of acetic acid and ethanol. After 15 minutes incubation, absorbance was read at 490 nm.

[2] = Cytotoxicity against CEM cells; assay type: cell-based; conditions: human
[3] = Cytotoxicity against PBM cells; assay type: cell-based; conditions: human
[4] = Cytotoxicity against VERO cells; assay type: cell-based; conditions: African green monkey
[5] = tested on: subgenomic HCV replicon BM4-5 in Huh7 cells; assay: Antiviral assay on HCV subgenomic replicon, Northern blot of (+)-strand HCV RNA; assay type: cell-based, Hepatitis C Virus; conditions: for pIC50 / IC90: Hepatitis C virus, 72 h, Huh7 BM4-5 replicon, positive strand HCV RNA by Northern blot, three days treatment; for pIC50: read-out: IC50, anti-HCV activity, (+)-RNA; for IC90: read-out: IC90, anti-HCV activity, (+)-RNA; for Selectivity Index (SI), ratio between CC50 and IC50: replicon system
Method: as §1
Cells were seeded in 6-wells plates at a density of 2.5×10^5 cells per well, sixteen hours before the beginning of treatment. […] The administration of each drug was renewed every day for three consecutive days. Ribarivin (ICN Pharmaceuticals), mycophenolic acid (MPA, Sigma), and interferon alpha-2b (IntronA®)) were used in the same conditions as positive controls. The concentrations used for these drugs were respectively: 0; 0.5; 1; 2; 4; 8; 16; 32; 64; 128; 256 and 512 μM for ribavirin, 0; 2.5; 5; 10; 20; 40 μM for mycophenolic acid, and 0; 0.1; 1; 10; 100 and 1000 Ul/mL for IFN alpha-2b. Total RNA was extracted at the end of treatment (24 hours after the last day of treatment) with the <<Extract all>> reagent (Eurobio), which is a mix of phenol and guanidium thiocyanate. Northern blot analysis was then performed using the NorthernMax™-Gly kit (Ambion), following manufacturer's instructions. Five micrograms of total RNA were denaturated in glyoxal buffer at 50° C. for 30 minutes, separated by 1.1% agarose gel electrophoresis, and then transferred for 12 hours onto a charged nylon membrane (HybondN+, Amersham). Hybridization was carried out with three different [^32P]CTP-labelled riboprobes obtained by in vitro transcription (Riboprobe in vitro transcription system, Promega). Two probes were complementary to the NS5A region of the HCV genome of negative polarity and positive polarity. A third probe was complementary to the beta-actin mRNA and obtained by in vitro transcription from a specific plasmid (PTRI beta actin human, reference 7424, Ambion). First, the blot was hybridized with the riboprobes directed against the negative strand of HCV RNA and beta-actin mRNA, respectively. After one night of hybridization at 68° C., the membrane was washed, then exposed to X-ray film and a phosphor screen (phosphorimager). This screen was then scanned and quantitative analysis was achieved using ImageQuant software. The amount of beta-actin mRNA was used as an internal loading control to standardize the amount of HCV RNA detected. The same membrane was subsequently hybridized with the […] to determine the level of positive strand HCV RNA, suing the same approach.

Compound	CC50 at 3 days [1] [µM]	CC50 [2] [µM]	CC50 [3] [µM]	CC50 [4] [µM]	pIC50 [5]	IC90 [5] [µM]	Selectivity Index (SI), ratio between CC50 and IC50 [5]	melting point
O=c1[nH]c(=O)n([C@@H]2O[C@H](CO)C[C@H]2O)cc1/C(I)=C\I [Compound 14c, (E)-5-(1,2-Diiodovinyl)-3′-deoxyuridine]	> 200	> 100	87.2	42.6	< 3.70	> 200	≦1	
O=c1[nH]c(=O)n([C@@H]2O[C@H](CO)C[C@H]2O)cc1/C(Br)=C\Br [Compound 17c, (E)-5-(1,2-Dibromovinyl)-3′-deoxyuridine]	> 200	79.3	> 100	7.8	< 3.70	> 200	≦1	
CC(=O)OC[C@H]1O[C@@H](n2cc(/C(I)=C\I)c(=O)[nH]c2=O)C[C@@H]1OC(C)=O								76 to 78 °C
O=c1[nH]c(=O)n([C@@H]2O[C@H](CO)C[C@H]2O)cc1C#CBr [Compound 13c, 5-(2-Bromoethynyl)-3′-deoxyuridine]	> 300	> 100	> 100	6.4	< 3.52	> 300	≦1	
CC(=O)OC[C@H]1O[C@@H](n2cc(/C(Br)=C\Br)c(=O)[nH]c2=O)[C@H](OC(C)=O)[C@@H]1OC(C)=O								83 to 85 °C
O=c1[nH]c(=O)n([C@H]2C[C@H](O)[C@@H](CO)O2)cc1C#CBr [Compound 13a, 5-(2-Bromoethynyl)-2′-deoxyuridine]	> 200	> 100	> 100	> 100	< 3.70	> 200	≧1	
O=c1[nH]c(=O)n([C@H]2C[C@H](O)[C@@H](CO)O2)cc1/C(Br)=C\I [Compound 15a, (E)-5-(1-Bromo-2-iodovinyl)-2′-deoxyuridine]	43	0.13	13.3	6.6	< 4.00	> 100	<1	
CC(=O)OC[C@H]1O[C@@H](n2cc(C#CI)c(=O)[nH]c2=O)C[C@@H]1OC(C)=O								175 to 177 °C (dec.)
CC(=O)OC[C@H]1O[C@@H](n2cc(/C(Br)=C\I)c(=O)[nH]c2=O)C[C@@H]1OC(C)=O								82 to 84 °C
O=c1[nH]c(=O)n([C@@H]2O[C@H](CO)[C@@H](O)[C@H]2O)cc1/C(Br)=C\Br [Compound 17b, (E)-5-(1,2-Dibromovinyl)-uridine]	> 200	> 100	> 100	59.8	< 3.70	> 200	≦1	
O=c1[nH]c(=O)n([C@@H]2O[C@H](CO)[C@@H](O)[C@H]2O)cc1/C(Br)=C\I [Compound 15b, (E)-5-(1-Bromo-2-iodovinyl)-uridine]	> 100	93.6	> 100	> 100	< 4.00	> 100	≦1	
O=c1[nH]c(=O)n([C@H]2C[C@H](O)[C@@H](CO)O2)cc1/C(Cl)=C\I [Compound 16a, (E)-5-(1-Chloro-2-iodovinyl)-2′-deoxyuridine]	213	14.8	3.2	1.4	4.10	> 207	2.7	
O=c1[nH]c(=O)n([C@@H]2O[C@H](CO)C[C@H]2O)cc1C#CI [Compound 12c, 5-(2-Iodoethynyl)-3′-deoxyuridine]	> 200	> 100	> 100	3.2	< 3.70	> 200	≦1	
CC(=O)OC[C@H]1O[C@@H](n2cc(C#CI)c(=O)[nH]c2=O)[C@H](OC(C)=O)[C@@H]1OC(C)=O								100 to 102 °C
CC(=O)OC[C@H]1O[C@@H](n2cc(C(Br)=CBr)c(=O)[nH]c2=O)C[C@@H]1OC(C)=O								79 to 81 °C
CC(=O)OC[C@@H]1C[C@@H](OC(C)=O)[C@H](n2cc(C(Br)=CBr)c(=O)[nH]c2=O)O1								78 to 80 °C
COc1c(C)c2c(c(O)c1C/C=C(\C)CCC(=O)O)C(=O)OC2 [MPA, mycophenolic acid, reference compound]	7				4.40		<1	
CC(=O)OC[C@@H]1C[C@@H](OC(C)=O)[C@H](n2cc(/C(I)=C\I)c(=O)[nH]c2=O)O1								75 to 77 °C
O=c1[nH]c(=O)n([C@@H]2O[C@H](CO)[C@@H](O)[C@H]2O)cc1C#CI [Compound 12b, 5-(2-Iodoethynyl)-uridine]	148	> 100	> 100	> 100	< 3.70	> 200	<1	
CC(=O)OC[C@H]1O[C@@H](n2cc(/C(I)=C\I)c(=O)[nH]c2=O)[C@H](OC(C)=O)[C@@H]1OC(C)=O								83 to 85 °C
CC(=O)OC[C@H]1O[C@@H](n2cc(/C(Br)=C\I)c(=O)[nH]c2=O)[C@H](OC(C)=O)[C@@H]1OC(C)=O								86 to 88 °C
O=c1[nH]c(=O)n([C@@H]2O[C@H](CO)C[C@H]2O)cc1/C(Cl)=C\I [Compound 16c, (E)-5-(1-Chloro-2-iodovinyl)-3′-deoxyuridine]	> 200	66.6	94.4	15.3	< 3.70	> 200	≦1	
O=c1[nH]c(=O)n([C@H]2C[C@H](O)[C@@H](CO)O2)cc1/C(Br)=C\Br [Compound 17a, (E)-5-(1,2-Dibromovinyl)-2′-deoxyuridine]	> 200	43.9	> 100	> 100	> 3.70	> 200	≧1	
